Inconclusive results and toxic doses are left out.
System: BDF1 mice, P388 leukemia ip, median survival T/C
Test: NCI In Vivo Anticancer Drug Screen. Data for tumor model P388 Leukemia (intraperitoneal) in B6D2F1 (BDF1) mice
Settings: endpoint: median survival time, higher = longer survival
Outline: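 Read-out is survival of treated animals expressed relative to the vehicle group, as a T/C ratio.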

[1] = dose: 50.0 mg/kg/injection, schedule: Q01DX009 (ip), vehicle: saline
[2] = dose: 100.0 mg/kg/injection, schedule: Q01DX009 (ip), vehicle: saline
[3] = dose: 100.0 mg/kg/injection, schedule: Q04DX003 (ip), vehicle: saline with Tween-80
[4] = dose: 200.0 mg/kg/injection, schedule: Q04DX003 (ip), vehicle: saline with Tween-80
[5] = dose: 400.0 mg/kg/injection, schedule: Q04DX003 (ip), vehicle: saline with Tween-80
[6] = dose: 50.0 mg/kg/injection, schedule: Q01DX009 (ip), vehicle: saline with Tween-80
[7] = dose: 100.0 mg/kg/injection, schedule: Q01DX009 (ip), vehicle: saline with Tween-80
[8] = dose: 200.0 mg/kg/injection, schedule: Q01DX009 (ip), vehicle: saline with Tween-80
[9] = dose: 50.0 mg/kg/injection, schedule: Q04DX003 (ip), vehicle: saline with Tween-80

SMILES: CN(C)C/C=C(/c1ccc(Br)cc1)c1cccnc1
- T/C (dose: 12.5 mg/kg/injection, schedule: Q01DX009 (ip), vehicle: saline): 89 % of control
- T/C (dose: 25.0 mg/kg/injection, schedule: Q01DX009 (ip), vehicle: saline): 103 % of control
- T/C [1]: 97 % of control

SMILES: N=C(N)Sc1cc(O)ccc1O
- T/C [1]: 109 % of control
- T/C (dose: 65.0 mg/kg/injection, schedule: Q01DX009 (ip), vehicle: saline): 115 % of control
- T/C [2]: 115 % of control

SMILES: CC/C(=N/O)c1ccccc1
- T/C [3]: 90 % of control
- T/C [4]: 110 % of control
- T/C [5]: 105 % of control

SMILES: CC(C)(COC(=O)c1cc(Br)ccc1Br)NC(=O)c1cc(Br)ccc1Br
- T/C [6]: 91 % of control
- T/C [7]: 97 % of control
- T/C [8]: 97 % of control

SMILES: Cc1sc2c(c1-c1ccccc1)C(=O)CCCN2
- T/C (dose: 25.0 mg/kg/injection, schedule: Q01DX005 (ip), vehicle: saline with Tween-80): 108 % of control
- T/C (dose: 50.0 mg/kg/injection, schedule: Q01DX005 (ip), vehicle: saline with Tween-80): 101 % of control
- T/C [9]: 107 % of control
- T/C (dose: 100.0 mg/kg/injection, schedule: Q01DX005 (ip), vehicle: saline with Tween-80): 118 % of control
- T/C [3]: 107 % of control
- T/C (dose: 200.0 mg/kg/injection, schedule: Q01DX005 (ip), vehicle: saline with Tween-80): 118 % of control
- T/C [4]: 105 % of control
- T/C [5]: 105 % of control

SMILES: Cc1ccc(NS(=O)(=O)c2ccc([N+](=O)[O-])cc2)c(C)c1
- T/C [3]: 100 % of control
- T/C [4]: 104 % of control
- T/C [5]: 104 % of control

SMILES: Cc1cc2nc[nH]c(=O)n2n1
- T/C [6]: 110 % of control
- T/C [7]: 90 % of control

SMILES: Cc1cnc(Cl)nc1Sc1nc(N)nc2nc[nH]c12
- T/C (dose: 6.0 mg/kg/injection, schedule: Q01DX009 (ip), vehicle: saline with Tween-80): 184 % of control
- T/C (dose: 33.0 mg/kg/injection, schedule: Q04DX003 (ip), vehicle: saline with Tween-80): 118 % of control
- T/C [9]: 122 % of control
- T/C (dose: 75.0 mg/kg/injection, schedule: Q04DX003 (ip), vehicle: saline with Tween-80): 109 % of control
- T/C [3]: 100 % of control

SMILES: O=C(Nc1ccc(Cl)cc1)c1ccccc1
- T/C (dose: 50.0 mg/kg/injection, schedule: Q01DX009 (ip), vehicle: Klucel (hydroxypropylcellulose) (HPC)): 122 % of control
- T/C (dose: 50.0 mg/kg/injection, schedule: Q04DX003 (ip), vehicle: Klucel (hydroxypropylcellulose) (HPC)): 95 % of control
- T/C (dose: 100.0 mg/kg/injection, schedule: Q01DX009 (ip), vehicle: Klucel (hydroxypropylcellulose) (HPC)): 95 % of control
- T/C (dose: 100.0 mg/kg/injection, schedule: Q04DX003 (ip), vehicle: Klucel (hydroxypropylcellulose) (HPC)): 91 % of control
- T/C (dose: 200.0 mg/kg/injection, schedule: Q01DX009 (ip), vehicle: Klucel (hydroxypropylcellulose) (HPC)): 90 % of control
- T/C (dose: 200.0 mg/kg/injection, schedule: Q04DX003 (ip), vehicle: Klucel (hydroxypropylcellulose) (HPC)): 100 % of control

SMILES: NOCc1cccc([N+](=O)[O-])c1
- T/C (dose: 50.0 mg/kg/injection, schedule: Q04DX003 (ip), vehicle: saline): 100 % of control
- T/C (dose: 100.0 mg/kg/injection, schedule: Q04DX003 (ip), vehicle: saline): 91 % of control
- T/C (dose: 200.0 mg/kg/injection, schedule: Q04DX003 (ip), vehicle: saline): 91 % of control

SMILES: N=Cc1c(O)n(-c2ccccc2)c(=O)[nH]c1=O
- T/C [7]: 112 % of control
- T/C [8]: 100 % of control
- T/C (dose: 400.0 mg/kg/injection, schedule: Q01DX009 (ip), vehicle: saline with Tween-80): 104 % of control

SMILES: CC(=O)Nc1onc(C)c1N
- T/C [1]: 90 % of control
- T/C [2]: 100 % of control
- T/C (dose: 200.0 mg/kg/injection, schedule: Q01DX009 (ip), vehicle: saline): 95 % of control

Reference: PubChem BioAssay AID328 (DTP/NCI, 2004)
